The text below walks through data of patent US9758491B2, “Molecules having pesticidal utility, and intermediates, compositions, and processes, related thereto” (priority 2015, dated 2017).

Format in all cases: in vivo
In data set [1] the test system is Beet Armyworm (Spodoptera exigua, LAPHEG). As to the kind of experiment: Bioassay on Beet Armyworm (BAW), 128-well diet tray assay. Conditions: 168 h, 50 μg/cm^2 on artificial diet, second instar larvae, 25° C., five to seven days, average of eight wells, read-out: BAW rating, % Control (or Mortality). On the procedure: (§1) Certain molecules disclosed in this document were tested against BAW and CL using procedures described in the following examples. In the reporting of the results, the “BAW & CL Rating Table” was used (See Table Section).
Bioassays on BAW were conducted using a 128-well diet tray assay. One to five second instar BAW larvae were placed in each well (3 mL) of the diet tray that had been previously filled with 1 mL of artificial diet to which 50 μg/cm^2 of the test molecule (dissolved in 50 μL of 90:10 acetone-water mixture) had been applied (to each of eight wells) and then allowed to dry. Trays were covered with a clear self-adhesive cover, vented to allow gas exchange, and held at 25° C., 14:10 light-dark for five to seven days. Percent mortality was recorded for the larvae in each well; activity in the eight wells was then averaged. The results are indicated in the table entitled “Table ABC: Biological Results” (See Table Section).

Data set [2] concerns Cabbage Looper (Trichoplusia ni, TRIPNI). As to the kind of experiment: Bioassay on Cabbage Looper (CL), 128-well diet tray assay. As to conditions: 168 h, 50 μg/cm^2 on artificial diet, second instar larvae, 25° C., five to seven days, average of eight wells, read-out: CL rating, % Control (or Mortality). On the procedure:
as §1
Bioassays on CL were conducted using a 128-well diet tray assay. One to five second instar CL larvae were placed in each well (3 mL) of the diet tray that had been previously filled with 1 mL of artificial diet to which 50 μg/cm^2 of the test molecule (dissolved in 50 μL of 90:10 acetone-water mixture) had been applied (to each of eight wells) and then allowed to dry. Trays were covered with a clear self-adhesive cover, vented to allow gas exchange, and held at 25° C., 14:10 light-dark for five to seven days. Percent mortality was recorded for the larvae in each well; activity in the eight wells was then averaged. The results are indicated in the table entitled “Table ABC: Biological Results” (See Table Section).

The test system of data set [3] is Yellow Fever Mosquito (Aedes aegypti, AEDSAE). As to the kind of experiment: Bioassay on Yellow Fever Mosquito (YFM) larvae, 96-well plate. Conditions: 4000 ppm DMSO master solution diluted, about 1 day-old larvae, room temperature, scored after 3 days. As for the experimental part: Certain molecules disclosed in this document were tested against YFM using procedures described in the following paragraph. In the reporting of the results, the “YFM Rating Table” was used (See Table Section).
Master plates containing 400 μg of a molecule dissolved in 100 μL of dimethyl sulfoxide (DMSO) (equivalent to a 4000 ppm solution) are used. A master plate of assembled molecules contains 15 μL per well. To this plate, 135 μL of a 90:10 water/acetone mixture is added to each well. A robot (Biomek® NXP Laboratory Automation Workstation) is programmed to dispense 15 μL aspirations from the master plate into an empty 96-well shallow plate (“daughter” plate). There are 6 reps (“daughter” plates) created per master. The created “daughter” plates are then immediately infested with YFM larvae.
The day before plates are to be treated, mosquito eggs are placed in Millipore water containing liver powder to begin hatching (4 g into 400 mL). After the “daughter” plates are created using the robot, they are infested with 220 μL of the liver powder/larval mosquito mixture (about 1 day-old larvae). After plates are infested with mosquito larvae, a non-evaporative lid is used to cover the plate to reduce drying. Plates are held at room temperature for 3 days prior to grading. After 3 days, each well is observed and scored based on mortality. The results are indicated in the table entitled “Table ABC: Biological Results” (See Table Section).

Consider `N/C(=N\C(=O)Nc1ccc(-c2ncn(-c3ccc(OC(F)(F)F)cc3)n2)cc1)Nc1ccccc1-c1ccccc1` [F1, (1E)-1-[Amino-(2-phenylanilino)methylene]-3-[4-[1-[4-(trifluoromethoxy)phenyl]-1H-1,2,4-triazol-3-yl]phenyl]urea], for which the mortality at 50 µg/cm2 in data set [1] and in data set [2] was 50 to 100% throughout. In addition, in data set [3], the “YFM rating, % Control (or Mortality)” value was “A (80-100)”.

Regarding `Cc1ccccc1N/C(N)=N/C(=O)Nc1ccc(-c2ncn(-c3ccc(OC(F)(F)F)cc3)n2)cc1` [F5, (1E)-1-[Amino-(2-methylanilino)methylene]-3-[4-[1-[4-(trifluoromethoxy)phenyl]-1H-1,2,4-triazol-3-yl]phenyl]urea], the mortality at 50 µg/cm2 in data set [1] and in data set [2] was 50 to 100% in each case. The “YFM rating, % Control (or Mortality)” value in data set [3] is “A (80-100)”.

For the molecule `COc1ccc(N/C(N)=N/C(=O)Nc2ccc(-c3ncn(-c4ccc(OC(F)(F)F)cc4)n3)cc2)c(C)c1` [F9, (1E)-1-[Amino-(4-methoxy-2-methyl-anilino)methylene]-3-[4-[1-[4-(trifluoromethoxy)phenyl]-1H-1,2,4-triazol-3-yl]phenyl]urea], the mortality at 50 µg/cm2 in data set [1] and in data set [2] was 50 to 100% throughout. Further, the “YFM rating, % Control (or Mortality)” value in data set [3] was “A (80-100)”.
